Experimental findings from publication PMC11478334, “Quaternized Curcumin Derivative—Synthesis, Physicochemical Characteristics, and Photocytotoxicity, Including Antibacterial Activity after Irradiation with Blue Light” (Molecules, 2024) are described below.

Where two headings read alike, the source gives them in different places. Some results are limits rather than exact numbers.

Holding throughout (test): MTT cell viability assay
Experiment [1] relates to WM115—melanoma (high-melanotic). The experiment is classed as cell-based. How it is done: (§1) To determine the toxicity of the tested compounds against normal and tumor cells, a cell viability assay was performed using MTT dye. The following cell lines were used: PHDF—primary human dermal fibroblasts, MRC-5—lung fibroblasts, WM266-4—melanoma, and WM115—melanoma. Whenever possible, the IC50 value was calculated for each cell line. The IC50 results are reported in Table 9, while Figure 14 presents graphs illustrating the dependence of cell viability on the concentration of the tested compounds.
(§2) In order to analyze the cytotoxic effect of curcumin and compounds 2 and 3, different cell lines were used: PHDF—primary human dermal fibroblasts, MRC-5—lung fibroblasts, WM266-4—melanoma (low-melanotic), and WM115—melanoma (high-melanotic). All cell lines were seeded onto 96-well flat-bottom plates at a concentration of 15,000 cells/well. Curcumin (1) and compounds 2 and 3 were dissolved in the completed culture medium at the final concentrations of 5 µM, 10 µM, 20 µM, 30 µM, 40 µM, and 50 µM. The final volume of medium in each well was 200 µL. Cells which were not exposed to the tested compounds constituted a control group. After 24 h, each of the reagents was added to the cells. Control cells were not treated with synthesized reagents; they were incubated with a completed cell culture medium. The incubation of cells with 1, 2, or 3 lasted 24 and 48 h. Then, the medium was discarded, and the new medium containing MTT (3-(4,5-dimethylthiazol-2-yl)-2,5-diphenyltetrazolium bromide) (Affymetrix, Cleveland, OH, USA) at a final concentration of 0.5 mg/mL was added to the cell culture. Cells were incubated for 2.5 h in cell culture conditions. Next, the medium was removed, and 100 µL of DMSO (Thermo Scientific, Waltham, MA, USA) was added to dissolve the formed formazan crystals. The absorbance was read with a Multiskan plate reader at 570 nm and the background at 655 nm (Thermo Scientific, Waltham, MA, USA). The experiment was performed in triplicate.
(§3) PHDF cells were extracted from skin pieces collected following mastectomy procedures at the Greater Poland Cancer Centre in Poznań, Poland. Each time, informed patient agreement was acquired for the “The Cancer Genome Atlas (TCGA)” project to utilize biological material for scientific research purposes. […] The MRC-5, WM266-4, and WM115 cell lines were obtained from the American Type Culture Collection (ATCC). For culturing of the PHDF, WM266-4, and WM115 cell lines, the medium contained Dulbecco′s Modified Eagle′s Medium (DMEM) (Biowest, Nuaillé, France), 10% of fetal bovine serum (Biowest, Nuaillé, France), and 1% of penicillin/streptomycin agents (Merck Millipore, Darmstadt, Germany). Cells were incubated in a humidified incubator containing 5% CO2. The MRC-5 cell line was cultured similarly to the method described in our previous article. Briefly, cells were incubated at 37 °C in an atmosphere enriched with 5% CO2. The basic culture medium was Dulbecco’s Modified Eagle’s Medium (DMEM) (Biowest, Nuaillé, France) supplemented with 10% fetal bovine serum (FBS) (Biowest, Nuaillé, France) with the addition of 2 mM L-glutamine and 5% non-essential amino acid solution.

Experiment [2] concerns PHDF—primary human dermal fibroblasts. The experiment is classed as cell-based. How it is done: as §1, §2, §3
In experiment [3] the test system is WM266-4—melanoma (low-melanotic). It counts as cell-based. Here is the method:
as §1, §2, §3

Experiment [4] deals with MRC-5—lung fibroblasts. The experiment is classed as cell-based, human. How it is done:
as §1, §2, §3

[5] abbreviates: 24 h incubation, read-out: IC50 24 h.
[6] abbreviates: 48 h incubation, read-out: IC50 48 h (converted).
The mark [7] stands for this setting: Homo sapiens, Fibroblast, 24 h incubation, read-out: IC50 24 h.
Setting [8] is: Homo sapiens, Fibroblast, 48 h incubation, read-out: IC50 48 h.
The mark [9] stands for this setting: Homo sapiens, Fibroblast, 48 h incubation, read-out: IC50 48 h (converted).

As usually defined, the IC50 is the point on the concentration scale where inhibition reaches its midpoint. On to `C[N+]1(CCOc2ccc(C=CC3=CC(C=Cc4ccc(OCC[N+]5(C)CCOCC5)cc4)=[O+][B-](F)(F)O3)cc2)CCOCC1` [Compound 3], for which the IC50 in experiment [1] (setting [5]), in experiment [1] (setting [6]), in experiment [2] (setting [7]), in experiment [2] (setting [8]), in experiment [3] (setting [5]) and in experiment [3] (setting [6]) was more than 50 µM in each case. Further, the IC50 in experiment [4] (setting [7]) and in experiment [4] (setting [9]) was more than 50 µM in each case.
Take Curcumin [reference compound]: the IC50 in experiment [1] (setting [5]) is 39.5 ± 9.4 µM; in experiment [1] (setting [6]), 18.1 µM; in experiment [2] (setting [5]), more than 50 µM; in experiment [2] (48 h incubation, read-out: IC50 48 h), 24.6 µM; in experiment [3] (24 h incubation, listed as curcumin, read-out: IC50 24 h), 45 µM; in experiment [3] (setting [5]), 44.9 ± 10.7 µM. Also, the IC50 in experiment [3] (48 h incubation, listed as curcumin, read-out: IC50 48 h (converted)) is 21 µM; in experiment [3] (setting [6]), 20.6 µM; in experiment [4] (setting [5]) it was 39.5 ± 8.8 µM; in experiment [4] (setting [6]), 18.1 µM.
Regarding `F[B-]1(F)OC(/C=C/c2ccc(OCCN3CCOCC3)cc2)=CC(/C=C/c2ccc(OCCN3CCOCC3)cc2)=[O+]1` [Compound 2], the IC50 was more than 50 µM in experiment [1] (setting [5]); more than 50 µM in experiment [1] (setting [6]); more than 50 µM in experiment [2] (setting [7]); 28.4 µM in experiment [2] (setting [8]); more than 50 µM in experiment [3] (setting [5]); more than 50 µM in experiment [3] (setting [6]). In addition, the values for the IC50 in experiment [4] (setting [7]) and in experiment [4] (setting [9]) were more than 50 µM and 3.8 µM, respectively.
